According to US9320737B2, “Substituted imidazopyridazines” (Bayer Intellectual Property GmbH, priority 2011, dated 2016):

Target: human full-length MKNK1 (Homo sapiens (Human), UniProt Q9BUB5, T344D)
Test: MKNK1 kinase assay (MKNK1 TR-FRET assay)
Assay type: biochemical
Conditions: GST-MKNK1 (T344D), 10 μM ATP, average or median values
Description: MKNK1-inhibitory activity of compounds of the present invention was quantified employing the MKNK1 TR-FRET assay as described in the following paragraphs.
As substrate for the kinase reaction the biotinylated peptide biotin-Ahx-[…] (C-terminus in amide form) was used which can be purchased e.g. form the company Biosyntan (Berlin-Buch, Germany).
For the assay […] of a 100 fold concentrated solution of the test compound in DMSO was pipetted into a black low volume 384 well microtiter plate (Greiner Bio-One, Frickenhausen, Germany), 2 μL of a solution of MKNK1 in aqueous assay buffer [50 mM HEPES pH 7.5, 5 mM magnesium chloride, 1.0 mM dithiothreitol, 0.005% (v/v) Nonidet-P40 (Sigma)] was added and the mixture was incubated for 15 min at 22° C. to allow pre-binding of the test compounds to the enzyme before the start of the kinase reaction. Then the kinase reaction was started by the addition of 3 μL of a solution of adenosine-tri-phosphate (ATP, 16.7 μM=>final conc. in the 5 μL assay volume is 10 μM) and substrate (0.1 μM=>final conc. in the 5 μL assay volume is 0.06 μM) in assay buffer and the resulting mixture was incubated for a reaction time of 45 min at 22° C. The concentration of MKNK1 was adjusted depending of the activity of the enzyme lot and was chosen appropriate to have the assay in the linear range, typical concentrations were in the range of 0.05 μg/ml. The reaction was stopped by the addition of 5 μL of a solution of TR-FRET detection reagents (5 nM streptavidine-XL665 [Cisbio Bioassays, Codolet, France] and 1 nM anti-ribosomal protein S6 (pSer236)-antibody from Invitrogen [#44921G] and 1 nM LANCE EU-W1024 labeled ProteinG [Perkin-Elmer, product no. AD0071]) in an aqueous EDTA-solution (100 mM EDTA, 0.1% (w/v) bovine serum albumin in 50 mM HEPES pH 7.5).
The resulting mixture was incubated for 1 h at 22° C. to allow the formation of complex between the phosphorylated biotinylated peptide and the detection reagents. Subsequently the amount of phosphorylated substrate was evaluated by measurement of the resonance energy transfer from the Eu-chelate to the streptavidine-XL. Therefore, the fluorescence emissions at 620 nm and 665 nm after excitation at 350 nm were measured in a TR-FRET reader, e.g. a Rubystar (BMG Labtechnologies, Offenburg, Germany) or a Viewlux (Perkin-Elmer). The ratio of the emissions at 665 nm and at 622 nm was taken as the measure for the amount of phosphorylated substrate.

Chain of human full-length MKNK1 (Q9BUB5 other isoform, or with tags, fused parts or gaps T344D): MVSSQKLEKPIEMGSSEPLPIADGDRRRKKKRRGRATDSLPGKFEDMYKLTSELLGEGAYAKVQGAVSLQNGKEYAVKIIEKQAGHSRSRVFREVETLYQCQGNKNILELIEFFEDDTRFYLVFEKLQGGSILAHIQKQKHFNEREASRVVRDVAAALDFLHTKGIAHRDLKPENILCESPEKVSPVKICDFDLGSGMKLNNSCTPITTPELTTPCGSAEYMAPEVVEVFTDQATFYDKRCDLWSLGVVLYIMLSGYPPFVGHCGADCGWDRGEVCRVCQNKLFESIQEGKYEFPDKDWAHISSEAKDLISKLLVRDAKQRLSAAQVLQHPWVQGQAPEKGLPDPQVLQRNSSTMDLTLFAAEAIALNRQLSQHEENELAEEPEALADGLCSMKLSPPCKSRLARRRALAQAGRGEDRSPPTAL

SMILES	IC50 [nM]
CS(=O)(=O)CCCOc1nn2c(-c3cc4ccccc4o3)cnc2cc1-c1ccccc1 [Example III.11, 3-(1-Benzofuran-2-yl)-6-[3-(methylsulfonyl)propoxy]-7-phenylimidazo[1,2-b]-pyridazine]	17
CS(=O)(=O)CCCOc1ccc2ncc(-c3cc4cc(Cl)ccc4o3)n2n1 [Example III.5, 3-(5-Chloro-1-benzofuran-2-yl)-6-[3-(methylsulfonyl)propoxy]imidazo[1,2-b]pyridazine]	15
COc1nccc2oc(-c3cnc4ccc(OCCCS(C)(=O)=NC#N)nn34)cc12 (stereo not shown) [Example IV.9, [(3-{[3-(4-Methoxyfuro[3,2-c]pyridin-2-yl)imidazo[1,2-b]pyridazin-6-yl]oxy}propyl)(methyl)oxido-lambda^6-sulfanylidene]cyanamide]	9
CS(=O)(=O)CCCOc1ccc2ncc(-c3cc4cc(F)ccc4o3)n2n1 [Example III.4, 3-(5-Fluoro-1-benzofuran-2-yl)-6-[3-(methylsulfonyl)propoxy]imidazo[1,2-b]pyridazine]	7
CS(=O)(=O)CCCOc1ccc2ncc(-c3cc4cnccc4o3)n2n1 [III.13, 3-(Furo[3,2-c]pyridin-2-yl)-6-[3-(methylsulfonyl)propoxy]imidazo[1,2-b]-pyridazine]	28
COc1nccc2oc(-c3cnc4ccc(OCCCS(C)(=O)=O)nn34)cc12 [Example III.12, 3-(4-Methoxyfuro[3,2-c]pyridin-2-yl)-6-[3-(methylsulfonyl)propoxy]-imidazo-[1,2-b]pyridazine]	12
CS(=O)(=O)CCCOc1ccc2ncc(-c3cc4ncccc4o3)n2n1 [Example III.14, 3-(Furo[3,2-b]pyridin-2-yl)-6-[3-(methylsulfonyl)propoxy]imidazo[1,2-b]pyridazine]	60
CS(=O)(=O)CCCOc1ccc2ncc(-c3cc4cccc(F)c4o3)n2n1 [Example III.6, 3-(7-Fluoro-1-benzofuran-2-yl)-6-[3-(methylsulfonyl)propoxy]imidazo[1,2-b]pyridazine]	48
CS(=O)(=O)CCCOc1ccc2ncc(-c3cc4c(F)cccc4o3)n2n1 [Example III.9, 3-(4-Fluoro-1-benzofuran-2-yl)-6-[3-(methylsulfonyl)propoxy]imidazo[1,2-b]pyridazine]	17
COc1ccc2oc(-c3cnc4ccc(OCCCS(C)(=O)=O)nn34)cc2c1 [Example III.2, 3-(5-Methoxy-1-benzofuran-2-yl)-6-[3-(methylsulfonyl)propoxy]imidazo[1,2-b]pyridazine]	5
COc1cccc2oc(-c3cnc4ccc(OCCCS(C)(=O)=O)nn34)cc12 [Example III.3, 3-(4-Methoxy-1-benzofuran-2-yl)-6-[3-(methylsulfonyl)propoxy]imidazo[1,2-b]pyridazine]	2
Cc1cc2ncc(-c3cc4ccccc4o3)n2nc1OCCCS(C)(=O)=O [Example III.10, 3-(1-Benzofuran-2-yl)-7-methyl-6-[3-(methylsulfonyl)propoxy]imidazo[1,2-b]-pyridazine]	11
C[S+]([O-])CCCCOc1ccc2ncc(-c3cc4ccccc4o3)n2n1 (stereo not shown) [Example II.3, 3-(1-Benzofuran-2-yl)-6-[4-(methylsulfinyl)butoxy]imidazo[1,2-b]pyridazine]	5
Cc1cccc2cc(-c3cnc4ccc(OCCCS(C)(=O)=O)nn34)oc12 [Example III.8, 3-(7-Methyl-1-benzofuran-2-yl)-6-[3-(methylsulfonyl)propoxy]imidazo[1,2-b]pyridazine]	70
COc1cccc2oc(-c3cnc4ccc(OCCCS(C)(=O)=NC(=O)C(F)(F)F)nn34)cc12 (stereo not shown) [Example IV.1, 2,2,2-Trifluoro-N-[(3-{[3-(4-methoxy-1-benzofuran-2-yl)imidazo[1,2-b]pyridazin-6-yl]oxy}propyl)(methyl)oxido-lambda^6-sulfanylidene]acetamide]	9
CSCCCCOc1ccc2ncc(-c3cc4ccccc4o3)n2n1 [Example I.3, 3-(1-Benzofuran-2-yl)-6-[4-(methylsulfanyl)butoxy]imidazo[1,2-b]pyridazine]	27
COc1nccc2oc(-c3cnc4ccc(OCCCS(C)(=N)=O)nn34)cc12 (stereo not shown) [Example IV.10, 3-(4-Methoxyfuro[3,2-c]pyridin-2-yl)-6-[3-(S-methylsulfonimidoyl)propoxy]-imidazo[1,2-b]pyridazine]	9
Cc1c(-c2cnc3ccc(OCCCS(C)(=O)=O)nn23)oc2ccccc12 [Example III.7, 3-(3-Methyl-1-benzofuran-2-yl)-6-[3-(methylsulfonyl)propoxy]imidazo[1,2-b]pyridazine]	61
COc1cccc2oc(-c3cnc4ccc(OCCC[S+](C)[O-])nn34)cc12 (stereo not shown) [Example II.1, 3-(4-Methoxy-1-benzofuran-2-yl)-6-[3-(methylsulfinyl)propoxy]imidazo[1,2-b]pyridazine]	2

Other lines, results leading:

IC50 [nM]	SMILES
4	C[S+]([O-])CCCOc1ccc2ncc(-c3cc4ccccc4o3)n2n1 (stereo not shown) [Example II.2, 3-(1-Benzofuran-2-yl)-6-[3-(methylsulfinyl)propoxy]imidazo[1,2-b]pyridazine]
21	COc1cccc2oc(-c3cnc4ccc(OCCCSC)nn34)cc12 [Example I.1, 3-(4-Methoxy-1-benzofuran-2-yl)-6-[3-(methylsulfanyl)propoxy]imidazo[1,2-b]-pyridazine]
16	CSCCOc1ccc2ncc(-c3cc4ccccc4o3)n2n1 [Example I.4, 3-(1-Benzofuran-2-yl)-6-[2-(methylsulfanyl)ethoxy]imidazo[1,2-b]pyridazine]
47	CS(=O)(CCOc1ccc2ncc(-c3cc4ccccc4o3)n2n1)=NC(=O)C(F)(F)F (stereo not shown) [Example IV.7, N-[(2-{[3-(1-Benzofuran-2-yl)imidazo[1,2-b]pyridazin-6-yl]oxy}ethyl)(methyl)oxido-lambda^6-sulfanylidene]-2,2,2-trifluoroacetamide]
5	CS(=O)(=O)CCCOc1ccc2ncc(-c3cc4ccccc4o3)n2n1 [Example III.1, 3-(1-Benzofuran-2-yl)-6-[3-(methylsulfonyl)propoxy]imidazo[1,2-b]pyridazine]
7	CS(=O)(CCCOc1ccc2ncc(-c3cc4ccccc4o3)n2n1)=NC#N (stereo not shown) [Example IV.8, [(3-{[3-(1-Benzofuran-2-yl)imidazo[1,2-b]pyridazin-6-yl]oxy}propyl)(methyl)oxido-lambda^6-sulfanylidene]cyanamide]
4	CS(=N)(=O)CCCOc1ccc2ncc(-c3cc4ccccc4o3)n2n1 (stereo not shown) [Example IV.4, 3-(1-Benzofuran-2-yl)-6-[3-(S-methylsulfonimidoyl)propoxy]imidazo[1,2-b]pyridazine]
15	CS(=O)(CCCCOc1ccc2ncc(-c3cc4ccccc4o3)n2n1)=NC(=O)C(F)(F)F (stereo not shown) [Example IV.5, N-[(4-{[3-(1-Benzofuran-2-yl)imidazo[1,2-b]pyridazin-6-yl]oxy}butyl)(methyl)oxido-lambda^6-sulfanylidene]-2,2,2-trifluoroacetamide]
11	CSCCCOc1ccc2ncc(-c3cc4ccccc4o3)n2n1 [Example I.2, 3-(1-Benzofuran-2-yl)-6-[3-(methylsulfanyl)propoxy]imidazo[1,2-b]pyridazine]
